For data set [1], the target named is T1, Dopamine D2 receptor (D2 long) (Homo sapiens, UniProt P14416).
T1 construct: expressed in transfected cells
In words: Dopamine D2 receptor binding assay ([N-methyl-3H]spiroperidol, CHO membranes). The settings on record: human D2 long receptor in CHO membranes, room temperature, 60 minutes. How it is done:
(§1) The ustilipides effectively antagonize dopamine D2 and D3 receptors. One measure of their activity is the IC50 which indicates the concentration of inhibitor at which the rate of the normal enzymatic reaction (or receptor antagonism) is reduced by 50%.
(§2) The D3 and D2 long genes were isolated from a human cDNA library and stably transfected into CHO cells (CHO=Chinese hamster ovary). Membrane fractions are obtained from single clones with high-level expression. The binding assay is carried out in 96-well plates at room temperature for 60 minutes. The reaction mixture contains 50 μl of [N-methyl-^3H]spiroperidol, 50 μl of test substance or S(−)-eticlopride made for nonspecific binding and 100 μl of membrane. The assay is stopped by rapid filtration through a GF/B filter into a Skatron 96 cell harvester. The filters are cut up and placed in containers (T trays, Wallac), and the radioactivity is determined in a scintillation counter.
(§3) The specific binding is defined as the difference between the total binding and the binding in the presence of 10 μM S(−)-eticlopride. The total binding corresponds approximately to 10% of the counts of the ligands employed in total.
(§4) The inhibition of the binding by a test substance is calculated by correlation with the control reaction. Analysis of the data took place using the LIGAND software package of McPherson, Munson & Rodbard, Elsevier-BIOSOFT.

A short description of data set [2]: Physicochemical properties (solubility, stability). The settings on record: for solubility: alcohols and other organic solvents. An excerpt: The physicochemical and spectroscopic properties of the ustilipides can be summarized as follows: […]
A further data set concerns the target T2, Dopamine D3 receptor (Homo sapiens, UniProt P35462).
T2 construct: expressed in transfected cells
In words: Dopamine D3 receptor binding assay ([N-methyl-3H]spiroperidol, CHO membranes). The settings on record: human D3 receptor in CHO membranes, room temperature, 60 minutes. The procedure: as §1, §2, §3, §4

For the next data set, the system named is human erythrocytes. In words: In vitro hemolysis. The class given is cell-based. The procedure: On use of the schizonellins, a fatal 100% hemolysis occurs at concentrations as low as 10 and 30 μg/ml respectively. Determination of the hemolytic effect of ustilipides A, B and C gave the following results, the hemolysis being measured by the percentage of ruptured cells.
The hemolysis experiments were carried out with human erythrocytes.
Venous blood freshly taken from humans, rhesus monkeys or beagle dogs is used to measure the hemolytic activity. The blood is collected in heparinized tubes and distributed in aliquots of 200 μl to 12 polyethylene tubes. One aliquot is mixed with 200 μl of distilled water and serves as 100% standard, and another is mixed with 200 μl of physiological saline (0.9% NaCl) (0% standard). 200 μl portions of substance dilutions in physiological saline to […] are distributed to the other tubes. All the tubes are cautiously agitated and then incubated at 37° C. for 3 hours. The 100% standard is then made up with 5 ml of distilled water, and the other tubes are each made up with 5 ml of physiological saline, and are centrifuged at 700 g for 5 minutes.
The hemolysis is determined by measuring the absorption of the supernatant in a spectrophotometer at a wavelength of 540 nm. The absorption of the standard with complete hemolysis is set at 100%. The absorption of the test product dilutions and of the 0% standard are measured and stated as a percentage of the maximum inducible hemolysis.

Setting [3] is: neutral and weakly acidic medium.

T1 sequence (P14416 whole entry): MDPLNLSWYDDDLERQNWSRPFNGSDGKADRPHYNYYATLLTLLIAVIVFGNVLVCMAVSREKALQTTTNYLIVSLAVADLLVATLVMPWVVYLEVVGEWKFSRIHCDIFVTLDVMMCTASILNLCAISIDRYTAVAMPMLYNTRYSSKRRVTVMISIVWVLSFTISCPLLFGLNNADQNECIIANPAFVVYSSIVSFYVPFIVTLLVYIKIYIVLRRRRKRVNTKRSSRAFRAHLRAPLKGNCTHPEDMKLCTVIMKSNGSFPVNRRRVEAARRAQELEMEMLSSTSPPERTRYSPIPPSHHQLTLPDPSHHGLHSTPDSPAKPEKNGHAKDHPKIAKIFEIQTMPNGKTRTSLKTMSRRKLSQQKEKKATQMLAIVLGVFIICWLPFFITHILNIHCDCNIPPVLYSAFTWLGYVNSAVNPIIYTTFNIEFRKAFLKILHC
T2 sequence (P35462 whole entry): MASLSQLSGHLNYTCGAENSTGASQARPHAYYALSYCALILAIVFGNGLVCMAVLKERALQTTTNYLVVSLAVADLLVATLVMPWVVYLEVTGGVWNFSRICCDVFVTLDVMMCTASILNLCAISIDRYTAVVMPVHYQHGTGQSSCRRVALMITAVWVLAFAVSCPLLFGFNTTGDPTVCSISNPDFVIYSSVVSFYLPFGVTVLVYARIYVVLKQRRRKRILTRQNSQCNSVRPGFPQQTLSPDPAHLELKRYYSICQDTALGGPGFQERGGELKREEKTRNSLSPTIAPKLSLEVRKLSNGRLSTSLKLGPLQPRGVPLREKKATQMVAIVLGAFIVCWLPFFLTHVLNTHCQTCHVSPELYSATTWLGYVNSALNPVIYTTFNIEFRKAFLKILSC

As a reminder, the IC50 is the concentration needed to halve the response being measured. Consider `CCCCCCCCCCCCCCCC(=O)O[C@@H]1[C@H](OC(=O)CCCCC)[C@H](OC[C@@H](O)[C@@H](O)CO)O[C@H](COC(C)=O)[C@H]1OC(C)=O` [Ustilipide A], for which the IC50 in data set [1] is 42.6 µM; on Dopamine D3 receptor, 7.09 µM. Also, the solubility result in data set [2] was “Colorless oil which is soluble in alcohols and other”. For the same compound, the stability entry is “medium but unstable in alkaline solution” in data set [2] (alkaline solution); “organic solvents. Stable in neutral and weakly acidic” in data set [2] (setting [3]). The “hemolysis (percentage of ruptured cells)” value in the data set on human erythrocytes (8 μg/ml) is listed as 0.0%; in the data set with human erythrocytes (16 μg/ml), 0.0%; in the data set on human erythrocytes (32 μg/ml), 0.0%; in the data set on human erythrocytes (62.5 μg/ml) it was 0.0%; with human erythrocytes (125 μg/ml), 0.1%.
Consider `CCCCCCCCCCCCCCCC(=O)O[C@@H]1[C@H](OC(=O)CCC)[C@H](OC[C@@H](O)[C@@H](O)CO)O[C@H](COC(C)=O)[C@H]1OC(C)=O` [Ustilipide B], for which the IC50 was 23.6 µM in data set [1] and 10.3 µM on Dopamine D3 receptor. Besides, the solubility entry in data set [2] was “Colorless oil which is soluble in alcohols and other”. Besides, the stability result in data set [2] (alkaline solution) was “medium but unstable in alkaline solution”; in data set [2] (setting [3]), “organic solvents. Stable in neutral and weakly acidic”. For the same compound, the “hemolysis (percentage of ruptured cells)” value in the data set on human erythrocytes (8 μg/ml) is reported as 0.0%; in the data set with human erythrocytes (16 μg/ml), 0.0%; in the data set with human erythrocytes (32 μg/ml) it was 0.0%; in the data set with human erythrocytes (62.5 μg/ml) it was 0.0%; in the data set with human erythrocytes (125 μg/ml), 0.4%.
For the compound `CCCCCCCCCCCCCCCC(=O)O[C@@H]1[C@H](OC(=O)C(C)C)[C@H](OC[C@@H](O)[C@@H](O)CO)O[C@H](CO)[C@H]1OC(C)=O` [Ustilipide C], the values for the IC50 (in data set [1]; at Dopamine D3 receptor) were 14.2 µM and 18.9 µM, respectively. Besides, the solubility result in data set [2] was “Colorless oil which is soluble in alcohols and other”. In addition, the stability result in data set [2] (alkaline solution) was “medium but unstable in alkaline solution”; in data set [2] (setting [3]), “organic solvents. Stable in neutral and weakly acidic”. Moreover, the “hemolysis (percentage of ruptured cells)” value with human erythrocytes (8 μg/ml) was found to be 0.0%; with human erythrocytes (16 μg/ml), 0.4%; in the data set on human erythrocytes (32 μg/ml) it was 0.4%; in the data set on human erythrocytes (62.5 μg/ml), 0.5%; in the data set with human erythrocytes (125 μg/ml), 0.8%.

The values above are taken from patent publication US6472158B1, “Ustilipides, method for the production and the use thereof” (Aventis Pharma Deutschland GmbH, priority 1998, dated 2002).
